The source made the active and inactive calls.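 The calls were made as follows: active = compounds giving half or more protection of infected cells from virus-caused growth loss, again on retest; inactive = the rest.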 Where a SMILES comes first, the peptide text is derived from it. [ ]: non-standard residue; d: D form. The star is where a group is joined. Ac5c = NC1(C(=O)O)CCCC1; Boc = CC(C)(C)OC(=O)*; tBu = CC(C)(C)*
System: CEM cells HIV-1 protection, formazan growth assay
Assay: NCI AIDS Antiviral Assay
Conditions: for IC50: measured here: growth of uninfected CEM cells
Procedure, shortened: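 Steps: treat uninfected and HIV-1-infected human CEM cells at five drug levels; quantify growth by soluble formazan; retest any compound reaching 50% protection; classify actives from the retest.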

| Compound | EC50 [µM] | IC50 [µM] | outcome |
| --- | --- | --- | --- |
| N#CC12CC(C=O)=C(N)C1(C#N)CC(C=O)=C2N (centres undefined) | > 200 | 14.8 | – |
| CCN(CC)C(=S)[S][Bi]([S]C(=S)N(CC)CC)[S]C(=S)N(CC)CC | > 7.94 | 0.11 | – |
| CCCCCCCCOC1N(C2CC(N=[N+]=[N-])C(CO)O2)C(=O)NC(=O)[C@]1(C)Cl (some centres undefined) | > 200 | 37.2 | – |
| CN(O)C(=O)c1ccc(OCc2cccc(Cl)c2)cc1 | > 200 | 12.6 | – |
| CCSC(SCC)C(O)C(O)C(O)C(O)C(O)C(O)CO (centres undefined) | – | – | inactive |
| COC1(OC)C2(Cl)C(Cl)=C(Cl)C1(Cl)C1COCC12 (centres undefined) | – | – | inactive |
| CC(=O)Nc1ccc(CNc2cc(=O)n(C)c(=O)[nH]2)cc1 | > 200 | > 200 | – |
| N=c1ccn2c(n1)OC1C(OP(=O)(O)O)C(CO)OC12 (centres undefined) | > 200 | 0.437 | – |
| CCCC(C)(O)CN (centres undefined) | – | – | inactive |
| CC1=NNC(=O)C1C1C(=O)NN=C(c2c[nH]c3ccccc23)C1Br (centres undefined) | > 200 | 95.5 | – |
| FC(F)(F)c1ccc2c(c1)N(CCCNCCN1CCOCC1)c1ccccc1S2 | > 355 | 20.9 | – |
| CN1c2ccccc2C2=C(C3=C(CS2)C(=O)CCS3)S1(=O)=O | > 38.9 | > 38.9 | – |
| CNC(=S)NNc1ncnc2c1ncn2-c1ccc(C)cc1 | > 200 | 57.5 | – |
| NC(CCC(=O)NC(CS(=O)(=O)O)C(=O)O)C(=O)O (centres undefined) | > 603 | > 603 | – |
| CN1C(=O)C2(C)SSC1(C)C(=O)N2C | > 200 | 12 | – |
| CC(=O)OCC1OC(N2C(c3ccccc3)=CC(c3ccco3)C(C#N)=C2S)C(OC(C)=O)C(OC(C)=O)C1OC(C)=O (centres undefined) | 178 | > 200 | – |
| CN(C)C(=O)C(NCCO)c1ccccc1 (centres undefined) | > 200 | 74.1 | – |
| O=C(O)c1ccc(NNC(=O)c2cccc3c(=O)c4ccccc4[nH]c23)cc1 | > 200 | 74.1 | – |
| O=C1OC2C=CCC1C2 (centres undefined) | > 200 | > 200 | – |
| NC(CSCCSCCSCC(N)C(=O)O)C(=O)O (centres undefined) | > 56.2 | > 56.2 | – |
| CC(=O)[O-].CC(=O)[O-].O=C(N/N=C/c1cc(Cl)cc(Cl)c1O)c1ccncc1.[Cu+2] | – | – | inactive |
| C[C@@H]1C[C@H]2[C@@H]3CCC4=CC(=O)C=C[C@]4(C)[C@@]3(F)[C@@H](O)C[C@]2(C)C1=O | – | – | inactive |

| Compound | EC50 [µM] | IC50 [µM] | outcome |
| --- | --- | --- | --- |
| CCN(CC)CCNCC(O)CN1CCN(C)CC1 (centres undefined) | > 200 | 155 | – |
| COc1ccc(-n2c(Cn3nnc(-c4cccnc4)n3)nn(C3OC(COC(=O)c4ccccc4)C(OC(=O)c4ccccc4)C3OC(=O)c3ccccc3)c2=S)cc1 (centres undefined) | > 100 | > 100 | – |
| O=C1N/C(=C\c2ccccc2)C(=O)N1CN1CCCC1 | > 200 | 115 | – |
| CC1(O)OC(=O)c2ccc3ccccc3c21 (centres undefined) | > 398 | > 398 | – |
| O=C(Cn1cc(-c2ccccc2)nn1)NC1CCCCC1 | > 200 | > 200 | – |
| O=C1/C(=C/c2ccc(O)c(CN3CCCCC3)c2)CCC/C1=C\c1ccc(O)c(CN2CCCCC2)c1 | – | – | inactive |
| CC(=O)C(=Cc1ccc(Br)cc1)C(C)=O | > 51.3 | 27.5 | – |
| Cn1c(NC(=O)C(=O)NC23CC4CC(CC(C4)C2)C3)nc2ccccc21 | – | – | inactive |
| O=C1c2cc([N+](=O)[O-])ccc2NC1(c1c[nH]c2ccccc12)c1c[nH]c2ccc(Br)cc12 (centres undefined) | > 200 | 26.3 | – |
| CCCc1cc(=O)oc2c3c(c4c(c12)OC(C)(C)C=C4)O[C@H](C)C(C)[C@@H]3O (some centres undefined) | 0.331 | 25.1 | – |
| O=C1CNC(=O)c2[nH]cnc2N1 | – | – | inactive |
| COC(=O)CCC(=O)CC(=O)C(=O)Nc1ccc(F)cc1 | > 45.7 | > 45.7 | – |
| Cc1nc2cc(N)c(Cl)cc2[nH]1 | > 200 | > 200 | – |
| CNC(=O)CCCNC(=O)CCCC(=O)OC | > 200 | > 200 | – |
| O=C(CC(c1ccccc1)C(Sc1ccccc1)(Sc1ccccc1)Sc1ccccc1)c1ccccc1 (centres undefined) | > 100 | > 100 | – |
| CCC1c2c(cc(=O)[nH]c2O)C(=O)N1C (centres undefined) | > 447 | > 447 | – |
| C[C@H]1C2=CC(=O)CC[C@@](C)(O2)[C@H]2CC[C@]3(C)[C@@H](O)CC[C@H]3[C@H]12 | > 589 | 234 | – |
| CN(C)/N=C/c1cn(C)c(=O)n(C)c1=O | > 200 | > 200 | – |
| c1ccc2c(c1)[nH]c1c(N3CCOCC3)nnc(N3CCOCC3)c12 | > 200 | > 200 | – |
| COC(=O)CC(C(C(=O)OC)C(=O)OC)N1C(=O)OC(c2ccccc2)C1c1ccccc1 (centres undefined) | 37.2 | 74.1 | – |
| CC1(CF)SCc2nc3ccccc3n21 (centres undefined) | > 200 | > 200 | – |
| COC(=O)C1=C(c2ccccc2)C(O)(c2ccccc2)C(C(=O)OC)C1=O (centres undefined) | > 339 | 209 | – |

| Compound | EC50 [µM] | IC50 [µM] | outcome |
| --- | --- | --- | --- |
| O=C1OCC2(CO1)CC1C=CC2C1 (centres undefined) | > 200 | > 200 | – |
| CCCCCCCCCCCCCCCCOC[C@H](COC(c1ccccc1)(c1ccccc1)c1ccccc1)O[P+](=S)OC (some centres undefined) | > 100 | 57.5 | – |
| COC(=O)C(C)(Cc1ccc2c(c1)nnn2C(C)=O)NC(C)=O (centres undefined) | > 200 | > 200 | – |
| Clc1ccc(-c2onc3ccc(Br)cc23)cc1 | > 162 | > 162 | – |
| O=NC1C(Cl)C2CC1C1C(Br)C(Br)CC21 (centres undefined) | > 200 | > 200 | – |
| ClC(Cl)(Cl)C1CCOC1n1nnc2ccccc21 (centres undefined) | – | – | inactive |
| Cc1ccccc1S(=O)(=O)OC1NS(=O)(=O)c2ccccc21 (centres undefined) | > 200 | > 200 | – |
| Brc1ccc(-c2cnc3nc4[nH]c5ccccc5c4nn23)cc1 | > 200 | 123 | – |
| Cc1cccc2c(N)c3cccc(C(=O)NCC[N+](C)(C)Cc4ccccc4[N+](=O)[O-])c3nc12 | > 100 | 3.55 | – |
| O=C(O)c1cc(O)c2c(c1)Cc1cccc(O)c1C2=O | > 200 | 28.8 | – |
| CN(C)CC[N+]1=Nc2cccc3cccc(c23)N1 | – | – | inactive |
| CC[C@H](CCCCC1CC[C@@H]2CC(=O)C[C@H]12)OC (some centres undefined) | > 200 | > 200 | – |
| COC(=O)c1ccc[c]([Sb](=[O])([OH])[OH])c1 | > 200 | 91.2 | – |
| OC1C2C=CCC1CCC2 (centres undefined) | – | – | inactive |
| CC1=NN(C(=O)CC(=O)Nc2ccccc2)C(=O)C1N=Nc1ccc(C(=O)O)cc1 (centres undefined) | > 200 | 58.9 | – |
| CC(=O)OC(CC1(C)C(C)CCC23COC(=O)C2=CCCC31)c1ccoc1 (centres undefined) | > 69.2 | 30.2 | – |
| O=C1/C(=C\c2cccc(Oc3ccccc3)c2)SC(c2ccccc2)N1c1ccc(Cl)cc1 (centres undefined) | > 20 | 1.29 | – |
| CC(OC(C)(C)C)C1NC(=O)C(CCCCNC(=O)OC(C)(C)C)NC(=O)C(Cc2c[nH]c3ccccc23)NC(=O)C(Cc2ccccc2)NC(=O)C2(CCCC2)NC(=O)C(Cc2ccccc2)NC1=O (centres undefined) (cyclo([Ac5c]FWK(Boc)T(tBu)F); configuration not given here) | > 100 | 18.6 | – |
| Clc1ccc(C[P+](c2ccccc2)(c2ccccc2)c2ccccc2)c(Cl)c1 | > 200 | 1.48 | – |
| O=C(O)C1CCC(c2ccc(Cl)cc2Cl)N1 (centres undefined) | > 200 | > 200 | – |
| CCCCC(=O)N1C(=O)/C(=C\N(C)C)c2cc(C=O)ccc21 | > 200 | 29.5 | – |

Source: PubChem BioAssay AID179 (DTP/NCI, 2004)
